Test results: patent publication US4394503A, “Cephalosporin derivatives” (priority 1981, dated 1983)
≈ marks a conversion by molar mass, not a printed value. Where two headings read alike, the source gives them in different places.

Experiments:
B. fragilis A22695 = assay: MIC against selected test organisms (Table 2); assay type: cell-based; settings: Bacteroides fragilis
P. aeruginosa A20717 = assay: MIC against selected test organisms (Table 2); assay type: cell-based; settings: Pseudomonas aeruginosa
P. aeruginosa A15150 = assay: MIC against selected test organisms (Table 2); assay type: cell-based; settings: Pseudomonas aeruginosa
[1] = test system: Cephalothin-resistant E. coli and Kl. pneumoniae (Gn-Ib); assay: In vitro antibacterial activity, two-fold agar dilution, Mueller-Hinton agar (Table 1), group Gn-Ib; assay type: cell-based, E. coli (3) and Kl. pneumoniae (3); settings: Escherichia coli, read-out: Geometric Mean of MIC
P. aeruginosa A9843 [2] = assay: MIC against selected test organisms (Table 2); assay type: cell-based; settings: Pseudomonas aeruginosa
in vivo = settings: mouse, im
Protocol: Blood samples were collected from the orbital sinuses into heparinized capillary tubes and assayed by the paper disc-agar diffusion method using E. coli as the test organism. The half-life values and areas under the curve were determined.

K. pneumoniae D11 = assay: MIC against selected test organisms (Table 2); assay type: cell-based; settings: Klebsiella pneumoniae
S. pneumoniae = assay: In vitro activity against species of Streptococcus, Neisseria and Haemophilus (Table 3); assay type: cell-based; settings: read-out: Geometric Mean of MIC
E. coli Juhl [3] = assay: MIC against selected test organisms (Table 2); assay type: cell-based; settings: Escherichia coli, read-out: Minimum Inhibitory Concentration
K. pneumoniae A 9867 = assay: MIC against selected test organisms (Table 2); assay type: cell-based; settings: Klebsiella pneumoniae
B. fragilis A22533 = assay: MIC against selected test organisms (Table 2); assay type: cell-based; settings: Bacteroides fragilis
B. fragilis A22693 = assay: MIC against selected test organisms (Table 2); assay type: cell-based; settings: Bacteroides fragilis, A22693, read-out: Minimum Inhibitory Concentration
H. influenzae(AMP-R) = assay: In vitro activity against species of Streptococcus, Neisseria and Haemophilus (Table 3); assay type: cell-based; settings: Haemophilus influenzae, read-out: Geometric Mean of MIC
[4] = test system: Cephalothin-sensitive E. coli, Kl. pneumoniae and Pr. mirabilis (Gn-Ia); assay: In vitro antibacterial activity, two-fold agar dilution, Mueller-Hinton agar (Table 1), group Gn-Ia; assay type: cell-based; settings: read-out: Geometric Mean of MIC
S. marcescens A20019 = assay: MIC against selected test organisms (Table 2); assay type: cell-based; settings: Serratia marcescens
B. fragilis A21900 = assay: MIC against selected test organisms (Table 2); assay type: cell-based; settings: Bacteroides fragilis
H. influenzae(AMP-S) = assay: In vitro activity against species of Streptococcus, Neisseria and Haemophilus (Table 3); assay type: cell-based; settings: Haemophilus influenzae, read-out: Geometric Mean of MIC
P. acnes A21933 = assay: MIC against selected test organisms (Table 2); assay type: cell-based; settings: Cutibacterium acnes
N. gonorrhoeae = assay: In vitro activity against species of Streptococcus, Neisseria and Haemophilus (Table 3); assay type: cell-based; settings: Neisseria gonorrhoeae, read-out: Geometric Mean of MIC
S. pyrogenes = assay: as above; assay type: cell-based; settings: read-out: Geometric Mean of MIC
N. meningitidus = assay: as above; assay type: cell-based; settings: read-out: Geometric Mean of MIC
P. aeruginosa A9843 [5] = assay: Therapeutic efficacy in experimentally infected mice (Table 5); assay type: in vivo; settings: Pseudomonas aeruginosa, A9843, im, 120 h; i.m., immediately after intraperitoneal challenge, 5 days observation; read-out: PD50 (median protective dose)
Protocol: (§1) The test compounds were administered intramuscularly immediately after the bacterial challenge.

S. aureus BX-1633 = assay: as above; assay type: in vivo; settings: Staphylococcus aureus, BX1633, im, 120 h; i.m., immediately after intraperitoneal challenge, 5 days observation; read-out: PD50 (median protective dose)
Protocol: as §1

Pr. mirabilis A9900 = assay: as above; assay type: in vivo; settings: Proteus mirabilis, A9900, im, 120 h; i.m., immediately after intraperitoneal challenge, 5 days observation; read-out: PD50 (median protective dose)
Protocol: as §1

S. aureus Smith = assay: as above; assay type: in vivo; settings: Staphylococcus aureus, im, 120 h; i.m., immediately after intraperitoneal challenge, 5 days observation; read-out: PD50 (median protective dose)
Protocol: as §1

E. coli Juhl [6] = assay: as above; assay type: in vivo; settings: Escherichia coli, im, 120 h; i.m., immediately after intraperitoneal challenge, 5 days observation; read-out: PD50 (median protective dose)
Protocol: as §1

E. cloacae A9656 = assay: as above; assay type: in vivo; settings: Enterobacter cloacae, A9656, im, 120 h; i.m., immediately after intraperitoneal challenge, 5 days observation; read-out: PD50 (median protective dose)
Protocol: as §1

C. difficile A21675 = assay: MIC against selected test organisms (Table 2); assay type: cell-based; settings: Clostridioides difficile
B. fragilis A20928-1 = assay: MIC against selected test organisms (Table 2); assay type: cell-based; settings: Bacteroides fragilis

SMILES: CC(C)(O/N=C(\C(=O)N[C@@H]1C(=O)N2C(C(=O)[O-])=C(C[n+]3ccccc3)CS[C@H]12)c1csc(N)n1)C(=O)O [Ceftazidime, ceftazidime, reference compound]
- MIC (B. fragilis A22695; A22695, read-out: Minimum Inhibitory Concentration): 50 µg/mL (≈ 91.5 µM)
- MIC (P. aeruginosa A20717; A20717, read-out: Minimum Inhibitory Concentration): 6.3 µg/mL (≈ 11.5 µM)
- MIC (P. aeruginosa A15150; A15150, read-out: Minimum Inhibitory Concentration): 0.8 µg/mL (≈ 1.46 µM)
- MIC [1]: 1.6 µg/mL (≈ 2.93 µM)
- MIC (P. aeruginosa A9843 [2]; A9843, read-out: Minimum Inhibitory Concentration): 1.6 µg/mL (≈ 2.93 µM)
- AUC (in vivo; 10 mg/kg): 5500 ng·h/mL
- concentration at 10 min (in vivo; 10 mg/kg): 8000 ng/mL
- concentration at 20 min (in vivo; 10 mg/kg): 7800 ng/mL
- concentration at 0.5 h (in vivo; 10 mg/kg): 5500 ng/mL
- concentration at 40 min (in vivo; 10 mg/kg): 3900 ng/mL
- concentration at 1 h (in vivo; 10 mg/kg): 1800 ng/mL
- concentration at 1.5 h (in vivo; 10 mg/kg): 400 ng/mL
- half-life (in vivo; 10 mg/kg): 16 min
- AUC (in vivo; 20 mg/kg): 10000 ng·h/mL
- concentration at 10 min (in vivo; 20 mg/kg): 18000 ng/mL
- concentration at 20 min (in vivo; 20 mg/kg): 14000 ng/mL
- concentration at 0.5 h (in vivo; 20 mg/kg): 11000 ng/mL
- concentration at 40 min (in vivo; 20 mg/kg): 7700 ng/mL
- concentration at 1 h (in vivo; 20 mg/kg): 2400 ng/mL
- concentration at 1.5 h (in vivo; 20 mg/kg): 610 ng/mL
- half-life (in vivo; 20 mg/kg): 14 min
- MIC (K. pneumoniae D11; D11, read-out: Minimum Inhibitory Concentration): 0.1 µg/mL (≈ 0.183 µM)
- MIC (S. pneumoniae): 0.4 µg/mL (≈ 0.732 µM)
- MIC (E. coli Juhl [3]): 0.1 µg/mL (≈ 0.183 µM)
- MIC (K. pneumoniae A 9867; A9867, read-out: Minimum Inhibitory Concentration): 6.3 µg/mL (≈ 11.5 µM)
- MIC (B. fragilis A22533; A22533, read-out: Minimum Inhibitory Concentration): > 100 µg/mL
- MIC (B. fragilis A22693): 12.5 µg/mL (≈ 22.9 µM)
- MIC (H. influenzae(AMP-R)): 0.2 µg/mL (≈ 0.366 µM)
- MIC [4]: 0.066 µg/mL (≈ 0.121 µM)
- MIC (S. marcescens A20019; A20019, read-out: Minimum Inhibitory Concentration): 0.1 µg/mL (≈ 0.183 µM)
- MIC (B. fragilis A21900; A21900, read-out: Minimum Inhibitory Concentration): 25 µg/mL (≈ 45.7 µM)
- MIC (H. influenzae(AMP-S)): 0.055 µg/mL (≈ 0.101 µM)
- MIC (P. acnes A21933; A21933, read-out: Minimum Inhibitory Concentration): 1.6 µg/mL (≈ 2.93 µM)
- MIC (N. gonorrhoeae): 0.1 µg/mL (≈ 0.183 µM)
- MIC (S. pyrogenes): 0.4 µg/mL (≈ 0.732 µM)
- MIC (N. meningitidus): 0.1 µg/mL (≈ 0.183 µM)
- ED50 (P. aeruginosa A9843 [5]): 6 mg/kg
- ED50 (S. aureus BX-1633): 15 mg/kg
- ED50 (Pr. mirabilis A9900): 0.9 mg/kg
- ED50 (S. aureus Smith): 10 mg/kg
- ED50 (E. coli Juhl [6]): 0.11 mg/kg
- ED50 (E. cloacae A9656): 3.5 mg/kg
- MIC (C. difficile A21675; A21675, read-out: Minimum Inhibitory Concentration): > 100 µg/mL
- MIC (B. fragilis A20928-1; A209281, read-out: Minimum Inhibitory Concentration): 3.1 µg/mL (≈ 5.67 µM)

SMILES: CSc1cc[n+](CC2=C(C(=O)[O-])N3C(=O)C(NC(=O)/C(=N\OC(C)(C)C(=O)O)c4csc(N)n4)C3SC2)cc1 (stereo not shown) [Example 2, 7-[(Z)-2-(2-Aminothiazol-4-yl)-2-(2-carboxyprop-2-oxyimino)-acetamido]-3-[(4-methylthiopyridinium)methyl]-3-cephem-4-carboxylate]
- MIC (B. fragilis A22695; A22695, Anaerobe, AMP-R, read-out: Minimum Inhibitory Concentration): 50 µg/mL (≈ 84.4 µM)
- MIC (P. aeruginosa A20717; A20717, Gn-III, CET-R, read-out: Minimum Inhibitory Concentration): 6.3 µg/mL (≈ 10.6 µM)
- MIC (P. aeruginosa A15150; A15150, Gn-III, CET-R, read-out: Minimum Inhibitory Concentration): 1.6 µg/mL (≈ 2.7 µM)
- MIC [1]: 0.89 µg/mL (≈ 1.5 µM)
- MIC (P. aeruginosa A9843 [2]; A9843, Gn-III, CET-R, read-out: Minimum Inhibitory Concentration): 1.6 µg/mL (≈ 2.7 µM)
- AUC (in vivo; 10 mg/kg): 3700 ng·h/mL
- concentration at 10 min (in vivo; 10 mg/kg): 4500 ng/mL
- concentration at 20 min (in vivo; 10 mg/kg): 5100 ng/mL
- concentration at 0.5 h (in vivo; 10 mg/kg): 3800 ng/mL
- concentration at 40 min (in vivo; 10 mg/kg): 3200 ng/mL
- concentration at 1 h (in vivo; 10 mg/kg): 1100 ng/mL
- concentration at 1.5 h (in vivo; 10 mg/kg): 450 ng/mL
- half-life (in vivo; 10 mg/kg): 18 min
- AUC (in vivo; 20 mg/kg): 10000 ng·h/mL
- concentration at 10 min (in vivo; 20 mg/kg): 12000 ng/mL
- concentration at 20 min (in vivo; 20 mg/kg): 12000 ng/mL
- concentration at 0.5 h (in vivo; 20 mg/kg): 9300 ng/mL
- concentration at 40 min (in vivo; 20 mg/kg): 8700 ng/mL
- concentration at 1 h (in vivo; 20 mg/kg): 4000 ng/mL
- concentration at 1.5 h (in vivo; 20 mg/kg): 1200 ng/mL
- half-life (in vivo; 20 mg/kg): 16 min
- MIC (K. pneumoniae D11; D11, Gn-Ia, CET-S, read-out: Minimum Inhibitory Concentration): 0.1 µg/mL (≈ 0.169 µM)
- MIC (S. pneumoniae; 5 strains): 0.2 µg/mL (≈ 0.337 µM)
- MIC (E. coli Juhl [3]; Gn-Ia, CET-S): 0.1 µg/mL (≈ 0.169 µM)
- MIC (K. pneumoniae A 9867; A9867, Gn-Ib, CET-R, read-out: Minimum Inhibitory Concentration): 3.1 µg/mL (≈ 5.23 µM)
- MIC (B. fragilis A22533; A22533, Anaerobe, AMP-R, read-out: Minimum Inhibitory Concentration): > 100 µg/mL
- MIC (B. fragilis A22693): 12.5 µg/mL (≈ 21.1 µM)
- MIC (H. influenzae(AMP-R); AMP-R, 3 strains): 0.4 µg/mL (≈ 0.675 µM)
- MIC [4]: 0.066 µg/mL (≈ 0.111 µM)
- MIC (S. marcescens A20019; A20019, Gn-II, CET-R, read-out: Minimum Inhibitory Concentration): 0.4 µg/mL (≈ 0.675 µM)
- MIC (B. fragilis A21900; A21900, Anaerobe, CET-S, read-out: Minimum Inhibitory Concentration): 6.3 µg/mL (≈ 10.6 µM)
- MIC (H. influenzae(AMP-S); AMP-S, 7 strains): 0.1 µg/mL (≈ 0.169 µM)
- MIC (P. acnes A21933; A21933, Anaerobe, CLDM-R, read-out: Minimum Inhibitory Concentration): 1.6 µg/mL (≈ 2.7 µM)
- MIC (N. gonorrhoeae; 4 strains): 0.013 µg/mL (≈ 0.0219 µM)
- MIC (S. pyrogenes): 0.2 µg/mL (≈ 0.337 µM)
- MIC (N. meningitidus; 5 strains): 0.013 µg/mL (≈ 0.0219 µM)
- ED50 (P. aeruginosa A9843 [5]): 12 mg/kg
- ED50 (S. aureus BX-1633): 15 mg/kg
- ED50 (Pr. mirabilis A9900): 0.63 mg/kg
- ED50 (S. aureus Smith): 5 mg/kg
- ED50 (E. coli Juhl [6]): 0.16 mg/kg
- ED50 (E. cloacae A9656): 3.5 mg/kg
- MIC (C. difficile A21675; A21675, Anaerobe, CLDM-R, read-out: Minimum Inhibitory Concentration): > 100 µg/mL
- MIC (B. fragilis A20928-1; A209281, Anaerobe, CET-S, read-out: Minimum Inhibitory Concentration): 3.1 µg/mL (≈ 5.23 µM)
